{
  "source": "paper PMC10820640",
  "about": "“An Intravenous Pharmacokinetic Study of Cannabidiol Solutions in Piglets through the Application of a Validated Ultra-High-Pressure Liquid Chromatography Coupled to Tandem Mass Spectrometry Method for the Simultaneous Quantification of CBD and Its Carboxylated Metabolite in Plasma” (Pharmaceutics, 2024)",
  "key": {"[1]": {"experiment": "Intravenous pharmacokinetic study of CBD:HP-β-CD solution in piglets (UHPLC-MS/MS plasma quantification)", "assay_type": "in vivo, Large White piglets", "parameters": "A (macro constant): unit not given beside the values; γ (macro constant) / α (macro constant) / B (macro constant) / β (macro constant) / C (macro constant): unit not given here", "settings": "for AUC(0-t) / Cmax: piglet plasma, IV 0.3 mg/kg CBD, non-compartmental analysis, normalized to dose", "method": "The in vivo study was performed within the PigForLife® (CER Group Facilities) GLP structure (Marloie, Belgium). The study protocols were approved by the Local Ethical Commission before starting the study and complied with the Belgian regulation as published in the «Royal Decree of 29 May 2013 on the protection of experimental animals, A.G.W. 30 November 2017».\nSterile and isotonic CBD:HP-β-CD 100 mM (1.2 mg CBD/mL) solutions were prepared. A HP-β-CD stock solution (200 mM) was prepared by dissolving 31.0 g of HP-β-CD up to 100 mL with milliQ water. CBD:HP-β-CD complexes were prepared by adding an excess of CBD (45 mg) powder to 5 mL of milliQ water and 5 mL of the HP-β-CD stock solution, added with 84 mg of NaCl. The suspensions were kept in a rotating water bath set at 37 °C for 12 h. The suspensions were finally filtered through a 0.2 µm PHENEX® PTFE filter in laminar flow insulator conditions. The osmolarity and the pH value of the solutions were determined using a Freezing Point Osmometer (Löser, Delta Labo, Avignon, France) and a pH meter (Seven Easy, Mettler Toledo, Zaventem, Belgium), respectively. The solutions were injected to three Large White piglets (male and female, between 8 and 10 kg) at a dose of 0.3 mg/kg, as detailed in Table 3.\nThe animals were born on site and used in good health. The animals were housed together in pens of about 40 m^2 and an enriched environment was provided. Natural temperature and light cycles were used in a straw litter. During storage, the animals were fed ad libitum with a balanced pellet diet and were not given any curative or prophylactic veterinary drugs or additives during the study period. Tap water was available ad libitum. The piglets were fasted overnight ([…]) before receiving the formulations. All piglets were clinically examined before the study and before sampling. Blood samples (2 mL in EDTA tubes) were taken at 5 min, 10 min, 20 min, 30 min 45 min, 60 min, 90 min, 2 h, 4 h and 8 h. Blood samples were stored at 4 °C and centrifuged at 2500× g for 10 min. Plasma samples were then frozen at −80 °C until their analysis.\nPharmacokinetic analyses were evaluated by using the software Phoenix WinNonlin 8.4 version (Certara, Princeton, NJ, USA). Cmax and AUClast were determined through a non-compartmental pharmacokinetic analysis using the linear trapezoidal linear interpolation calculation method. Obtained values were normalized do the dose administered. The volumes of distribution (V1 and Vss), clearance and macro (A, B, C, α, β, γ) and micro (k10, k12, k21, k13, k31) constants were determined assuming a 2- or 3-compartment model. The model offering the best compromise between fitting and the number of parameters was selected based on an F test approach."}, "[2]": {"parameters": "method as in PMID 34400185", "settings": "reported in the literature; cited from earlier work"}, "[3]": {"parameters": "method as in PMID 31173966", "settings": "mice, CBD emulsion IV 10 mg/kg; cited from earlier work"}, "[4]": {"parameters": "method as in PMID 35895770", "settings": "horses, IV CBD in DMSO 0.1 mg/kg; cited from earlier work"}, "[5]": {"parameters": "method as in PMID 30534073", "settings": "humans, cited from earlier work"}, "[6]": {"settings": "both sexes, Large White, pig, n = 3"}, "[7]": {"settings": "IV-bolus three-compartment model, n = 2"}, "[8]": {"settings": "IV-bolus three-compartment model, n = 3"}, "[9]": {"settings": "IV-bolus two-compartment model, n = 2"}, "[10]": {"settings": "IV-bolus two-compartment model, n = 3"}, "[11]": {"settings": "piglets, IV, two-compartment model"}},
  "note": "Where two headings read alike, the source gives them in different places.",
  "data": [
    {"compound": "C=C(C)C1CCC(C(=O)O)=CC1c1c(O)cc(CCCCC)cc1O", "note": "(centres unmarked) [7-COOH-CBD, 7-COOH-cannabidiol]", "values": [
      {"measurement": "AUC(0-t)", "setting": "[1]; [6]", "value": "3930 ± 572", "unit": "ng·h/mL"},
      {"measurement": "Cmax", "setting": "[1]; [6]", "value": "610 ± 169", "unit": "ng/mL"},
      {"measurement": "earliest time metabolite concentrations were observed", "setting": "[1]; piglet plasma after IV CBD 0.3 mg/kg, first sampling point", "value": 5, "unit": "min"},
      {"measurement": "metabolite plasmatic concentration relative to that of CBD", "setting": "[2]", "value": 40, "unit": "fold"}
    ]},
    {"compound": "C=C(C)[C@@H]1CCC(C)=C[C@H]1c1c(O)cc(CCCCC)cc1O", "note": "[CBD, Cannabidiol]", "values": [
      {"measurement": "clearance", "setting": "[3]", "value": 3.4, "unit": "L/h/kg"},
      {"measurement": "half-life", "setting": "[3]", "value": 3.9, "unit": "h"},
      {"measurement": "A (macro constant)", "setting": "[1]; [7]", "value": "638.52 ± 60.91"},
      {"measurement": "B (macro constant)", "setting": "[1]; [7]", "value": "330.39 ± 41.34"},
      {"measurement": "C (macro constant)", "setting": "[1]; [7]", "value": "17.71 ± 15.74"},
      {"measurement": "α (macro constant)", "setting": "[1]; [7]", "value": "12.28 ± 7.90"},
      {"measurement": "β (macro constant)", "setting": "[1]; [7]", "value": "0.80 ± 0.19"},
      {"measurement": "γ (macro constant)", "setting": "[1]; [7]", "value": "0.09 ± 0.12"},
      {"measurement": "A (macro constant)", "setting": "[1]; [8]", "value": "640.14 ± 43.16"},
      {"measurement": "C (macro constant)", "setting": "[1]; [8]", "value": "10.56 ± 6.33"},
      {"measurement": "β (macro constant)", "setting": "[1]; [8]", "value": "0.70 ± 0.21"},
      {"measurement": "γ (macro constant)", "setting": "[1]; [8]", "value": "316.02 ± 38.40"},
      {"measurement": "A (macro constant)", "setting": "[1]; [9]", "value": "500.89 ± 129.30"},
      {"measurement": "B (macro constant)", "setting": "[1]; [9]", "value": "133.91 ± 105.05"},
      {"measurement": "α (macro constant)", "setting": "[1]; [9]", "value": "2.75 ± 2.18"},
      {"measurement": "β (macro constant)", "setting": "[1]; [9]", "value": "0.33 ± 0.10"},
      {"measurement": "A (macro constant)", "setting": "[1]; [10]", "value": "542.53 ± 116.45"},
      {"measurement": "B (macro constant)", "setting": "[1]; [10]", "value": "168.95 ± 95.92"},
      {"measurement": "α (macro constant)", "setting": "[1]; [10]", "value": "3.71 ± 2.26"},
      {"measurement": "β (macro constant)", "setting": "[1]; [10]", "value": "0.34 ± 0.07"},
      {"measurement": "clearance", "setting": "[1]; both sexes, Large White, pig, plasma, 0.3 mg/kg, piglets, IV, two-compartment model, read-out: Cl (clearance) (converted)", "value": 25.2, "unit": "mL/min"},
      {"measurement": "Vd", "setting": "[1]; both sexes, Large White, pig, plasma, 0.3 mg/kg, piglets, IV, two-compartment model, read-out: Vss (volume at steady state)", "value": "3.26 ± 0.287", "unit": "L"},
      {"measurement": "AUC(0-t)", "setting": "[1]; [6]", "value": "639 ± 79.2", "unit": "ng·h/mL"},
      {"measurement": "Cmax", "setting": "[1]; [6]", "value": "600 ± 75.8", "unit": "ng/mL"},
      {"measurement": "half-life", "setting": "[1]; both sexes, Large White, pig, piglets, IV 0.3 mg/kg CBD:HP-β-CD solution, experimental plasma profile, read-out: apparent distribution half-life (converted)", "value": 15, "unit": "min"},
      {"measurement": "elimination half-life", "setting": "[1]; piglets, IV 0.3 mg/kg CBD:HP-β-CD solution, experimental plasma profile", "value": "two"},
      {"measurement": "Capacity (k12/k21)", "setting": "[1]; [11]", "value": 1.5},
      {"measurement": "Depth (k10/k12)", "setting": "[1]; [11]", "value": 0.58},
      {"measurement": "V1 (volume of the central compartment)", "setting": "[1]; [11]", "value": "1512.43 ± 538.41", "unit": "mL"},
      {"measurement": "fc (ratio of quantity in the central compartment over total quantity, β/k1-0)", "setting": "[1]; [11]", "value": 0.33},
      {"measurement": "k1-0 (micro constant)", "setting": "[1]; [11]", "value": "1.04 ± 0.20", "unit": "h⁻¹"},
      {"measurement": "k1-2 (micro constant)", "setting": "[1]; [11]", "value": "1.80 ± 1.43", "unit": "h⁻¹"},
      {"measurement": "k2-1 (micro constant)", "setting": "[1]; [11]", "value": "1.20 ± 0.74", "unit": "h⁻¹"},
      {"measurement": "half-life", "setting": "[4]", "value": 3.15, "unit": "h"},
      {"measurement": "half-life of elimination (t1/2)", "setting": "[5]; after chronic oral administration", "value": "several days"},
      {"measurement": "clearance", "setting": "[5]; following an intravenous injection", "value": 74.4, "unit": "L/h"},
      {"measurement": "half-life of elimination (t1/2)", "setting": "[5]; pulmonary or single oral administration", "value": "around one or two"}
    ]}
  ]
}
